In patent publication US9371295B2, “Compounds for use in the treatment of disorders that are ameliorated by inhibition of HDAC” (IRBM—Science Park S.p.A., priority 2012, dated 2016):
pEC50, pIC50: −log10 of the molar value.

What was measured:
[1] = system: human γ-globin promoter (EGFP reporter) in K562 cells; experiment: HbF activation assay on K562 (EGFP/RFP reporter model system for screening of inducers of fetal hemoglobin); assay type: cell-based; conditions: 60 hours
Description: In order to test several compounds, a model system was produced based on previous findings present in the literature. The K562 erythroid-like cell lines, isolated and characterized by Lozzio & Lozzio (Blood, 45(3), pp 321-334) from a patient with chronic myelogenous leukemia in blast crisis, have been extensively employed as a useful in vitro model to study the molecular mechanism(s) regulating the expression of embryonic and fetal human globin genes, as well as for screening of new differentiation-inducing compounds. A stable cell line where reporter genes encoding green EGFP and far-red fluorescent protein red-FP are placed under the control of the human γ-globin or β-globin promoters respectively was used (see Vadolas et al, Hum. Mol. Genet. 2004, 13, 2, 223-233 for details). The modified 3-cluster also contains the upstream regulatory region called LCR. This cell line grows in suspension at 37° C. and 5% CO2 in humidified atmosphere in the following medium: DMEM, 10% foetal bovine serum, glutamine and antibiotics (penicillin and streptomycin);
The assay procedures is as follows: • Single concentration compounds or serially diluted samples are transferred to an empty assay plates by a spotter (ATS-100, EDC Biosystems, USA) in order to have a final concentration of DMSO of 0.25% in 50 μL of cell culture. Source plats contains compounds dissolved in 100% DMSO • Black, transparent bottom, 384 wells, tissue culture treated plates are used as assay plates. • Assay plates containing spotted compounds are filled with a suspension of cell in the described assay medium. The final cell concentration is of 1000 cells per well. • Cells are incubated in humidified atmosphere, 37° C.-5% CO2, for 60 hours • Cell nuclei are stained by adding 10 ul (6 μM; 1 μM final) Hoechst 33342 (Life Technologies, USA) • The cell associated intensity is read by a plate based cytometer (ACUMEN explorer, TTP Labtech, UK) • The nuclei count is used to assess the cell proliferation/death and to normalize the total EGFP/RFP intensity. HbF Activation Assay in Human Cell Line K562
The compounds of the invention were tested in the HbF activation assay on K562, as model system for screening of potential inducers of fetal hemoglobin.

HDAC in Hela cells = experiment: HDAC Hela Cell Based assay
HDAC1 = target: T1, HDAC1 (Homo sapiens, UniProt Q13547); experiment: HDAC1 assay (Fluor-de-Lys fluorescent deacetylase assay); assay type: biochemical; conditions: read-out: hHDAC IC50
T1 construct: made in house
Protocol: The HDAC1 assay is used to quantify the histone deacetylase (HDAC) activity. The assay is performed in 384 well microtiter plates by pre-incubating serial dilutions of the compounds with a fixed concentration of HeLa nuclear extract or purified HDAC1 and then adding an acetylated lysine-containing substrate/developer that fluoresces upon deacetylation.
Reagents of the HDAC Fluorescent Activity Assay are purchased from BioMol Research Laboratories (Plymouth Meeting, Pa.) and feature the Fluor-de-Lys™ Substrate/Developer System.
TSA Stock: TSA is provided as a 10 mM stock solution in 100% dimethylsulfoxide (DMSO). […] The final concentration in the assay is 20 uM.
3 uM [final] TSA to this solution increases its ability to stop the reaction.
HDAC1 Working Solution: The HDAC1 enzyme is diluted in assay buffer prior to each use from a fresh aliquot of enzyme. The final concentration in the assay is 1-2 nM.
Compounds: Test compounds are directly transferred from a 100% DMSO solution into assay plates by spotting nanoliters of solutions by an acoustic dispenser (ATS-100, EDC biosystems, US).
HeLa cells transiently transfected with pCDNA3-HDAC1-FLAG are grown to 80% confluence on 10 cm culture dishes in DMEM, 10% Fetal bovine serum supplemented with antibiotics and glutamine. Cells are washed with 10 ml cold PBS and scraped into 2 ml of PBS. Cells are centrifuged for 5 minutes at 800×g at 4° C., washed with 30 ml PBS and resuspended in 10 ml PBS, counted, re-centrifuged and frozen at −80° C.
The frozen cell pellet is re-suspended in 1 ml of hypotonic lysis buffer (LB: 20 mM Hepes pH7.9, 0.25 mM EDTA, 10% glycerol) containing COMPLETE protease inhibitor and incubated on ice for 15 minutes, followed by homogenization on a 2-ml DounceB homogenizer (25 strokes). 150 mM KCl and 0.5% NP-40 are added to the homogenate and the solution is sonicated twice for 30 seconds (output5/6, duty cycle 90) and incubated for 1 hour at 4° C. After a 30 minutes centrifugation at 12000 rpm and 4° C. the supernatant (soluble extract) is collected and protein concentration is determined using the BIORAD assay.
Anti-FLAG M2 affinity resin (Sigma) is washed three times with TBS and twice with LB. 10 μl of the LB-washed resin/mg of protein (2-3 ug of Flagged-HDAC1) are added to the soluble extract (1 mL) and incubated overnight at 4° C. with gentle mixing. The resin is then collected by centrifugation, washed once with LB, twice with LB+0.1% NP40 and twice with elution buffer (50 mM Hepes pH 7.4, 5% glycerol, 100 mM KCl, 0.01% Triton X-100).
The concentration of purified HDAC is determined by Western blot analysis.

T1 sequence (Q13547 whole entry): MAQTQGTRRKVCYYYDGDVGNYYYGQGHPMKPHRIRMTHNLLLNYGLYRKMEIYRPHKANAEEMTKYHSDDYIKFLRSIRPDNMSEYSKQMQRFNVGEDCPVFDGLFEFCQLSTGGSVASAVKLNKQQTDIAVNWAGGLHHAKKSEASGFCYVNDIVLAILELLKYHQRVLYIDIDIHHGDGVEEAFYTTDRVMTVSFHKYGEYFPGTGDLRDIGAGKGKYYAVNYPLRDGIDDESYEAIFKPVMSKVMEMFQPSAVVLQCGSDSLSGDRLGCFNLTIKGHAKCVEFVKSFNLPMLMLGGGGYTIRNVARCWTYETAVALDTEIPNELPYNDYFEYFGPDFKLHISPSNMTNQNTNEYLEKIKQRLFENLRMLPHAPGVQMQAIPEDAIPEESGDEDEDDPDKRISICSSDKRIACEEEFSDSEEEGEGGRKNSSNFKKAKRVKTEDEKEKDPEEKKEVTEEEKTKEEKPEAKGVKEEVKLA

pEC50 [1] | pIC50 (HDAC in Hela cells) | pIC50 (HDAC1) | SMILES
< 6.00 | 6.00 to 7.00 | 6.00 to 7.00 | CCC(=O)CCCCC[C@H](NC(=O)c1csc(CN(C)C)n1)c1ncc(-c2cc3ccccc3nc2OC)o1 [Compound 103, (S)-2-((dimethylamino)methyl)-N-(1-(5-(2-methoxyquinolin-3-yl)oxazol-2-yl)-7-oxononyl)thiazole-4-carboxamide]
< 6.00 | 6.00 to 7.00 | > 7.00 | CCC(=O)CCCCC[C@H](NC(=O)C1CN(C)C1)c1ncc(-c2ccc(-n3cccn3)cc2)o1 [Compound 61, (S)-N-(1-(5-(4-(1H-pyrazol-1-yl)phenyl)oxazol-2-yl)-7-oxononyl)-1-methylazetidine-3-carboxamide]
< 6.00 | 6.00 to 7.00 | > 7.00 | CCC(=O)CCCCC[C@H](NC(=O)C(=O)N1CCOCC1)c1ncc(-c2cc3ccccc3nc2OC)o1 [Compound 69, (S)-N-(1-(5-(2-methoxyquinolin-3-yl)oxazol-2-yl)-7-oxononyl)-2-morpholino-2-oxoacetamide]
< 6.00 | < 6.00 | > 7.00 | CCC(=O)CCCCC[C@H](NC(=O)[C@@H]1CSC(=O)N1)c1ncc(-c2ccccc2)o1 [Compound 13, (R)-2-oxo-N-((S)-7-oxo-1-(5-phenyloxazol-2-yl)nonyl)thiazolidine-4-carboxamide]
< 6.00 | < 6.00 | > 7.00 | CCC(=O)CCCCC[C@H](NC(=O)[C@@H]1CC(F)(F)CN1)c1ncc(-c2cc3ccccc3nc2OC)o1 [Compound 60, (S)-4,4-difluoro-N-((S)-1-(5-(2-methoxyquinolin-3-yl)oxazol-2-yl)-7-oxononyl)pyrrolidine-2-carboxamide]
< 6.00 | < 6.00 | > 7.00 | CCC(=O)CCCCC[C@H](NC(=O)C1CCN(C)C1)c1ncc(-c2ccccc2)o1 (stereo partly drawn) [Compound 8, 1-methyl-N-((S)-7-oxo-1-(5-phenyloxazol-2-yl)nonyl)pyrrolidine-3-carboxamide]
< 6.00 | 6.00 to 7.00 | > 7.00 | CCC(=O)CCCCC[C@H](NC(=O)Cc1ncccn1)c1ncc(-c2cc3ccccc3nc2OC)o1 [Compound 79, (S)-N-(1-(5-(2-methoxyquinolin-3-yl)oxazol-2-yl)-7-oxononyl)-2-(pyrimidin-2-yl)acetamide]
< 6.00 | 6.00 to 7.00 | > 7.00 | CCC(=O)CCCCC[C@H](NC(=O)C1CN(C)C1)c1ncc(-c2ccc(-c3ccc(OC)nc3)cc2)o1 [Compound 65, (S)-N-(1-(5-(4-(6-methoxypyridin-3-yl)phenyl)oxazol-2-yl)-7-oxononyl)-1-methylazetidine-3-carboxamide]
6.00 to 7.00 | > 7.00 | > 7.00 | CCC(=O)CCCCC[C@H](NC(=O)CCN(C)C)c1ncc(-c2cc3ccccc3nc2OC)o1 [Compound 38, (S)-3-(dimethylamino)-N-(1-(5-(2-methoxyquinolin-3-yl)oxazol-2-yl)-7-oxononyl)propanamide]
6.00 to 7.00 | > 7.00 | > 7.00 | CCC(=O)CCCCC[C@H](NC(=O)CCn1c(CC)nc2ccccc21)c1ncc(-c2cc3ccccc3nc2OC)o1 [Compound 29, (S)-3-(2-ethyl-1H-benzo[d]imidazol-1-yl)-N-(1-(5-(2-methoxyquinolin-3-yl)oxazol-2-yl)-7-oxononyl)propanamide]
6.00 to 7.00 | 6.00 to 7.00 | > 7.00 | CCC(=O)CCCCC[C@H](NC(=O)c1cccnc1)c1ncc(-c2cc3ccccc3nc2OC)o1 [Compound 91, (S)-N-(1-(5-(2-methoxyquinolin-3-yl)oxazol-2-yl)-7-oxononyl)nicotinamide]
< 6.00 | 6.00 to 7.00 | > 7.00 | CCC(=O)CCCCC[C@H](NC(=O)c1sc(C)nc1C)c1ncc(-c2cc3ccccc3nc2OC)o1 [Compound 83, (S)-N-(1-(5-(2-methoxyquinolin-3-yl)oxazol-2-yl)-7-oxononyl)-2,4-dimethylthiazole-5-carboxamide]
< 6.00 | > 7.00 | > 7.00 | CCC(=O)CCCCC[C@H](NC(=O)Cc1c(C)[nH]c2ccc(OC)cc12)c1nnc(-c2cc3ccccc3nc2OC)o1 [Compound 48, (S)-2-(5-methoxy-2-methyl-1H-indol-3-yl)-N-(1-(5-(2-methoxyquinolin-3-yl)-1,3,4-oxadiazol-2-yl)-7-oxononyl)acetamide]
< 6.00 | 6.00 to 7.00 | > 7.00 | CCC(=O)CCCCC[C@H](NC(=O)c1cc(C)nn1C)c1ncc(-c2cc3ccccc3nc2OC)o1 [Compound 96, (S)-N-(1-(5-(2-methoxyquinolin-3-yl)oxazol-2-yl)-7-oxononyl)-1,3-dimethyl-1H-pyrazole-5-carboxamide]
< 6.00 | 6.00 to 7.00 | > 7.00 | CCC(=O)CCCCC[C@H](NC(=O)c1csnn1)c1ncc(-c2cc3ccccc3nc2OC)o1 [Compound 99, (S)-N-(1-(5-(2-methoxyquinolin-3-yl)oxazol-2-yl)-7-oxononyl)-1,2,3-thiadiazole-4-carboxamide]
< 6.00 | < 6.00 | > 7.00 | CCC(=O)CCCCC[C@H](NC(=O)Cc1c(C)[nH]c2ccc(OC)cc12)c1ncc(-c2ccccc2)o1 [Compound 4, (S)-2-(5-methoxy-2-methyl-1H-indol-3-yl)-N-(7-oxo-1-(5-phenyloxazol-2-yl)nonyl)acetamide]
< 6.00 | 6.00 to 7.00 | > 7.00 | CCC(=O)CCCCC[C@H](NC(=O)C1CN(C)C1)c1ncc(-c2cccc3cccnc23)o1 [Compound 70, (S)-1-methyl-N-(7-oxo-1-(5-(quinolin-8-yl)oxazol-2-yl)nonyl)azetidine-3-carboxamide]
< 6.00 | 6.00 to 7.00 | > 7.00 | CCC(=O)CCCCC[C@H](NC(=O)Cc1cc2ncccn2n1)c1ncc(-c2cc3ccccc3nc2OC)o1 [Compound 89, (S)-N-(1-(5-(2-methoxyquinolin-3-yl)oxazol-2-yl)-7-oxononyl)-2-(pyrazolo[1,5-a]pyrimidin-2-yl)acetamide]
< 6.00 | 6.00 to 7.00 | > 7.00 | CCC(=O)CCCCC[C@H](NC(=O)Cc1cccnc1)c1ncc(-c2cc3ccccc3nc2OC)o1 [Compound 74, (S)-N-(1-(5-(2-methoxyquinolin-3-yl)oxazol-2-yl)-7-oxononyl)-2-(pyridin-3-yl)acetamide]
< 6.00 | < 6.00 | > 7.00 | CCC(=O)CCCCC[C@H](NC(=O)C1CN(C)C1)c1ncc(-c2ccccc2)o1 [Compound 32, (S)-1-methyl-N-(7-oxo-1-(5-phenyloxazol-2-yl)nonyl)azetidine-3-carboxamide]
